Test results from patent publication EP1377579B1 (Aventis Pharmaceuticals Inc., priority 2000, dated 2002).
pIC50: −log10 of the molar value. Structures can show the parent of a compound that is named as a salt. Where two headings read alike, the source gives them in different places. Values belong to the compound of their own block, whether it stands above or below them.

Experiments:
[1] = tested on: NCI-H460; experiment: In vitro proliferation assay (MTT), NCI-H460; type: cell-based; conditions: Homo sapiens, NCI-H460; MTT assay; value (SD, n) where given; read-out: H-460 Lung (IC50 µM)
Experimental: (§1) The proliferation of tumor cells can be measured using a tetrazolium salt-based assay known as the MTT (3-[4,5-Dimethylthiazol-2-yl]-2,5-diphenyltetrazolium bromide) assay. The proliferation test is performed essentially as described by Carmichael et al., Cancer Res. 47: 936-942, 1987. For the assay, the cell lines are plated onto 96 well plates at 1000 to 2500 cells/well (depending on the properties of the individual cell lines), left to attach and recover overnight. […] After 3 days, the cells are incubated with MTT dye (3-[4,5-Dimethylthiazol-2-yl]-2,5-diphenyltetrazolium bromide, Sigma # M5655, 10 mg/ml in Hank's Buffered Saline) to estimate the amount of live cells remaining vs. concentration for the test compounds. Specifically, MTT solution is added to a final concentration of […] and the plates incubated at 37 C for 2 to 4 hr. The MTT and culture medium is then removed from the cultures and 200 µl of DMSO is added to solubilize the dye from the cell layer. The absorbance at 570 nm is determined for each culture using a Spectramax plate reader (Molecular Devices).
(§2) IC50s were determined from the raw data from either the MTT or SRB assays.
All of the cell lines were obtained from American Type Tissue Collection, with the ATCC accession number in parentheticals. MCF-7 and MDA-MB-231 cells were grown in improved minimum essential medium (Biofluids) without phenol red, supplemented with 5 % fetal bovine serum, 0.01 mg/ml gentamicin and 3 mM L-glutamine. All of the other cell lines were grown in RPMI 1640 medium (Life Technologies) supplemented with 5 % fetal bovine serum, 0.01 mg/ml gentamicin and 3 mM L-glutamine TABLE 3

[2] = tested on: Colo-205; experiment: In vitro proliferation assay (MTT), Colo-205; type: cell-based; conditions: Homo sapiens, COLO 205; MTT assay; value (SD, n) where given; read-out: Colo-205 Colon (IC50 µM)
Experimental: as §1, §2

[3] = target: cdk2/cyclin E (Homo sapiens, UniProt P24941); experiment: Cyclin-dependent kinase assay, cdk2/cyclin E; conditions: CDK2 IC50, nM, GST-pRb substrate, 10 µM ATP
[4] = tested on: MDA-MB-435; experiment: In vitro proliferation assay (MTT), MDA-MB-435; type: cell-based, human; conditions: value (SD, n) where given, read-out: MB-435 Breast (IC50 µM)
In short: (§3)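 Step one: plate 1000 to 2500 cells per well and let them recover overnight. Step two: treat with compound for 3 days. Step three: add MTT, dissolve dye in DMSO, read absorbance at 570 nm and determine IC50.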

[5] = target: cdk4/cyclin D1 (Homo sapiens, UniProt P11802); experiment: Cyclin-dependent kinase assay, cdk4/cyclin D1; type: biochemical; conditions: cyclin D1/cdk4; GST-pRb substrate, 10 µM ATP
Sequence of cdk4/cyclin D1 (P11802 whole entry): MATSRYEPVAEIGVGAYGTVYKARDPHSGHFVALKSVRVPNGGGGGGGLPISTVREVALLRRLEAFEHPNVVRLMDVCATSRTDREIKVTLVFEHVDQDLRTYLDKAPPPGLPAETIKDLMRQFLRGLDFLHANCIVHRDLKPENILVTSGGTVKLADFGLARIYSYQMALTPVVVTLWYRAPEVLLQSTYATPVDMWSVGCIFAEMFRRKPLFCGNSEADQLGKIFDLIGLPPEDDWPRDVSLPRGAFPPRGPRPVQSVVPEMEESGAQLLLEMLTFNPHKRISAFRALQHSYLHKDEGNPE
Sequence of cdk4/cyclin D1 (P24385 whole entry partner): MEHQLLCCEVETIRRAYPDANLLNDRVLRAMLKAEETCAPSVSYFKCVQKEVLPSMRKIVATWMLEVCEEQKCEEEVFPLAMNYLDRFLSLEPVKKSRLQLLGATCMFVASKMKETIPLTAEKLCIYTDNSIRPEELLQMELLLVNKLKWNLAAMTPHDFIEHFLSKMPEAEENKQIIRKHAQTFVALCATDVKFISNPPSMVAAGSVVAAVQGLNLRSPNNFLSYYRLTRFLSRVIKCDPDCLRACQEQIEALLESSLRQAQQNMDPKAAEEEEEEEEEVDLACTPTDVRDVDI

[6] = tested on: PC-3; experiment: In vitro proliferation assay (MTT), PC-3; type: cell-based, human; conditions: value (SD, n) where given, read-out: PC-3 Prostate (IC50 µM)
In short: as §3

[7] = target: cdk1/cyclin B (Homo sapiens, UniProt P06493); experiment: Cyclin-dependent kinase assay, cdk1/cyclin B; conditions: CDK1 IC50, nM, Histone H1, 10 µM ATP
Sequence of cdk1/cyclin B (P06493 whole entry): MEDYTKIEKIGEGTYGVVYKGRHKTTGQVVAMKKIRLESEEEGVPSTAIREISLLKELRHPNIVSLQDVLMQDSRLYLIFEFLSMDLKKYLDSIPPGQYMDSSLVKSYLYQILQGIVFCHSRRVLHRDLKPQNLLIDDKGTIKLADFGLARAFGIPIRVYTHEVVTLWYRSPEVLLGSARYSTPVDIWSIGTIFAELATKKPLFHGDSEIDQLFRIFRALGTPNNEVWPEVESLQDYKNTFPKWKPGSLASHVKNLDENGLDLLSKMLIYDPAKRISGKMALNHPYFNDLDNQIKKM
Sequence of cdk1/cyclin B (P14635 whole entry partner): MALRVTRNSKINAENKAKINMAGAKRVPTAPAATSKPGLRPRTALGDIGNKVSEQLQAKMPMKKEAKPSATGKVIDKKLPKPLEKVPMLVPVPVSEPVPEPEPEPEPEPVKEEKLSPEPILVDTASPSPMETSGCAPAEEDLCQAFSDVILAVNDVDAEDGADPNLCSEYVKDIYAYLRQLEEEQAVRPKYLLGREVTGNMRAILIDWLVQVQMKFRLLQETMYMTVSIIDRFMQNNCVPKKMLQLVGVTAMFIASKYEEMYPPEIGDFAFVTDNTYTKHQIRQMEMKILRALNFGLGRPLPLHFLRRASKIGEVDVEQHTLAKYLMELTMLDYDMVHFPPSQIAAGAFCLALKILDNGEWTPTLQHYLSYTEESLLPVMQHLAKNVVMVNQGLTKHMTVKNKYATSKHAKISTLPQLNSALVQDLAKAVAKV

[8] = Homo sapiens, MDA-MB-435, MTT assay

Structure (SMILES): N[C@H]1CC[C@H](Nc2nc(NC3CCN(C(=O)c4cnc5ccccc5n4)CC3)c3ncn(C4CCCC4)c3n2)CC1 [compound 4, trans-1-{4-[2-(4-Amino-cyclohexylamino)-9-cyclopentyl-9H-purin-6-ylamino]-piperidin-1-yl}-1-quinoxalin-2-yl-methanone dihydrochloride]
IC50 [1]: 0.33 µM
IC50 [2]: 0.16 µM
IC50 [3]: 339 nM
IC50 [4, 8]: 0.7 µM
pIC50 [5]: 6.19
IC50 ([6]; Homo sapiens, PC-3, MTT assay): 0.72 µM
IC50 [7]: 197 nM

Structure (SMILES): N[C@H]1CC[C@H](Nc2nc(NC3CCN(C(=O)COc4ccccc4)CC3)c3ncn(C4CCCC4)c3n2)CC1 [compound 28, trans-1-{4-[2-(4-Amino-cyclohexylamino)-9-cyclopentyl-9H-purin-6-ylamino]-piperidin-1-yl}-2-phenoxy-ethanone dihydrochloride]
IC50 [1]: 0.21 µM
IC50 [2]: 0.09 µM
IC50 [3]: 52 nM
IC50 [4, 8]: 0.21 µM
pIC50 [5]: 6.85
IC50 ([6]; Homo sapiens, PC-3, MTT assay): 0.22 µM
IC50 [7]: 20 nM

Structure (SMILES): N[C@H]1CC[C@H](Nc2nc(NC3CCN(C(=O)COc4ccc(Cl)cc4)CC3)c3ncn(C4CCCC4)c3n2)CC1 [compound 31, trans-1-{4-[2-(4-Amino-cyclohexylamino)-9-cyclopentyl-9H-purin-6-ylamino]-piperidin-1-yl}-2-(4-chloro-phenoxy)-ethanone dihydrochloride]
IC50 [1]: 0.19 µM
IC50 [2]: 0.04 µM
IC50 [3]: 5 nM
IC50 [4, 8]: 0.17 µM
pIC50 [5]: 5.69
IC50 ([6]; Homo sapiens, PC-3, MTT assay): 0.16 µM
IC50 [7]: 105 nM

Structure (SMILES): N[C@H]1CC[C@H](Nc2nc(NC3CCN(C(=O)CCc4ccccc4)CC3)c3ncn(C4CCCC4)c3n2)CC1 [compound 33, trans 1-{4-[2-(4-Amino-cyclohexylamino)-9-cyclopentyl-9H-purin-6-ylamino]-piperidin-1-yl}-3-phenyl-propan-1-one dihydrochloride]
IC50 [1]: 0.24 µM
IC50 [2]: 0.07 µM
IC50 [3]: 30 nM
IC50 [4, 8]: 0.26 µM
pIC50 [5]: 6.37
IC50 ([6]; Homo sapiens, PC-3, MTT assay): 0.33 µM
IC50 [7]: 58 nM

Structure (SMILES): N[C@H]1CC[C@H](Nc2nc(NC3CCN(C(=O)COCc4ccccc4)CC3)c3ncn(C4CCCC4)c3n2)CC1 [compound 37, trans-1-{4-[2-(4-Amino-cyclohexylamino)-9-cyclopentyl-9H-purin-6-ylamino]-piperidin-1-yl}-2-benzyloxy-ethanone dihydrochloride]
IC50 [1]: 0.23 µM
IC50 [2]: < 0.02 µM
IC50 [3]: 32 nM
IC50 [4, 8]: 0.26 µM
pIC50 [5]: 5.77
IC50 ([6]; Homo sapiens, PC-3, MTT assay): 0.2 µM
IC50 [7]: 15 nM

Structure (SMILES): N[C@H]1CC[C@H](Nc2nc(NC3CCN(C(=O)CSc4ccccc4)CC3)c3ncn(C4CCCC4)c3n2)CC1 [compound 46, trans-1-{4-[2-(4-Amino-cyclohexylamino)-9-cyclopentyl-9H-purin-6-ylamino]-piperidin-1-yl}-2-phenylsulfanylethanone dihydrochloride]
IC50 [1]: 0.17 µM
IC50 [2]: 0.06 µM
IC50 [3]: 55 nM
IC50 [4, 8]: 0.17 µM
pIC50 [5]: 6.15
IC50 ([6]; Homo sapiens, PC-3, MTT assay): 0.19 µM
IC50 [7]: 153 nM

Structure (SMILES): N[C@H]1CC[C@H](Nc2nc(NC3CCN(C(=O)C4CCC4)CC3)c3ncn(C4CCCC4)c3n2)CC1 [compound 63, trans-1-{4-[2-(4-Amino-cyclohexylamino)-9-cyclopentyl-9H-purin-6-ylamino]-piperidin-1-yl}-1-cyclobutyl-methanone dihydrochloride]
IC50 [1]: 0.24 µM
IC50 [2]: 0.16 µM
IC50 [3]: 66 nM
IC50 [4, 8]: 0.17 µM
pIC50 [5]: 6.36
IC50 ([6]; Homo sapiens, PC-3, MTT assay): 0.21 µM
IC50 [7]: 23 nM

Structure (SMILES): N[C@H]1CC[C@H](Nc2nc(NC3CCN(S(=O)(=O)c4ccccc4)CC3)c3ncn(C4CCCC4)c3n2)CC1 [compound 105, trans-N^2-(4-Amino-cyclohexyl)-N^6-(1-benzenesulfonyl-piperidin-4-yl)-9-cyclopentyl-9H-purine-2,6-diamine dihydrochloride]
IC50 [1]: 0.29 µM
IC50 [2]: 0.21 µM
IC50 [3]: 8 nM
IC50 [4, 8]: 0.18 µM
pIC50 [5]: 7.16
IC50 ([6]; Homo sapiens, PC-3, MTT assay): 0.5 µM
IC50 [7]: 7 nM

Structure (SMILES): CC1(C)C2CCC1(CS(=O)(=O)N1CCC(Nc3nc(N[C@H]4CC[C@H](N)CC4)nc4c3ncn4C3CCCC3)CC1)C(=O)C2 (stereo partly drawn) [compound 107, trans-1-{4-[2-(4-Amino-cyclohexylamino)-9-cyclopentyl-9H-purin-6-ylamino]-piperidine-1-sulfonylmethyl}-7,7-dimethyl-bicyclo[2.2.1]heptan-2-one dihydrochloride]
IC50 [1]: 0.29 µM
IC50 [2]: 0.18 µM
IC50 [3]: 35 nM
IC50 [4, 8]: 0.11 µM
pIC50 [5]: 8.00
IC50 ([6]; Homo sapiens, PC-3, MTT assay): 0.41 µM
IC50 [7]: 250 nM

Structure (SMILES): N[C@H]1CC[C@H](Nc2nc(NC3CCN(S(=O)(=O)c4ccc(Cl)cc4)CC3)c3ncn(C4CCCC4)c3n2)CC1 [compound 108, trans-N -(4-Amino-cyclohexyl)-9-cyclopentyl-N^6-[1-(4-chloro-benzenesulfonyl)-piperidin-4-yl]-9H-purine-2,6-diamine dihydrochloride]
IC50 [1]: 0.29 µM
IC50 [2]: 0.18 µM
IC50 [3]: 10 nM
IC50 [4, 8]: 0.14 µM
pIC50 [5]: 6.77
IC50 ([6]; Homo sapiens, PC-3, MTT assay): 0.43 µM
IC50 [7]: 7 nM

Continued, values first:

IC50 [1]: 0.24 µM
IC50 [2]: < 0.02 µM
IC50 [3]: 201 nM
IC50 ([4]; MTT assay, dihydrochloride): 0.44 µM
pIC50 [5]: 7.06
IC50 ([6]; MTT assay, dihydrochloride): 1.2 µM
IC50 [7]: 160 nM
Structure (SMILES): N[C@H]1CC[C@H](Nc2nc(NC3CCN(C(=O)c4cccc(Cl)c4)CC3)c3ncn(C4CCCC4)c3n2)CC1 [compound 6, trans-1-{4-[2-(4-Amino-cyclohexylamino)-9-cyclopentyl-9H-purin-6-ylamino]-piperidin-1-yl}-1-(3-chloro-phenyl)-methanone dihydrochloride]

IC50 [1]: 1.11 µM
IC50 [2]: < 0.02 µM
IC50 [3]: 487 nM
IC50 [4, 8]: 1.34 µM
pIC50 [5]: 7.02
IC50 ([6]; Homo sapiens, PC-3, MTT assay): 2.26 µM
IC50 [7]: 399 nM
Structure (SMILES): COc1ccccc1C(=O)N1CCC(Nc2nc(N[C@H]3CC[C@H](N)CC3)nc3c2ncn3C2CCCC2)CC1 [compound 7, trans-1-{4-[2-(4-Amino-cyclohexylamino)-9-cyclopentyl-9H-purin-6-ylamino]-piperidin-1-yl}-1-(2-methoxy-phenyl)-methanone dihydrochloride]

IC50 [1]: 0.18 µM
IC50 [2]: 0.06 µM
IC50 [3]: 137 nM
IC50 [4, 8]: 0.75 µM
pIC50 [5]: 6.15
IC50 ([6]; Homo sapiens, PC-3, MTT assay): 0.86 µM
IC50 [7]: 74 nM
Structure (SMILES): COc1ccc(C(=O)N2CCC(Nc3nc(N[C@H]4CC[C@H](N)CC4)nc4c3ncn4C3CCCC3)CC2)cc1 [compound 8, trans-1-{4-[2-(4-Amino-cyclohexylamino)-9-cyclopentyl-9H-purin-6-ylamino]-piperidin-1-yl}-1-(4-methoxy-phenyl)-methanone dihydrochloride]

IC50 [1]: 0.14 µM
IC50 [2]: < 0.02 µM
IC50 [3]: 57 nM
IC50 [4, 8]: 0.8 µM
pIC50 [5]: 6.12
IC50 ([6]; Homo sapiens, PC-3, MTT assay): 1.24 µM
IC50 [7]: 49 nM
Structure (SMILES): N[C@H]1CC[C@H](Nc2nc(NC3CCN(C(=O)c4cccs4)CC3)c3ncn(C4CCCC4)c3n2)CC1 [compound 10, trans-1-{4-[2-(4-Amino-cyclohexylamino)-9-cyclopentyl-9H-purin-6-ylamino]-piperidin-1-yl}-1-thiophen-2-yl-methanone dihydrochloride]

IC50 [1]: 0.39 µM
IC50 [2]: 0.27 µM
IC50 [3]: 78 nM
IC50 [4, 8]: 0.57 µM
pIC50 [5]: 6.21
IC50 ([6]; Homo sapiens, PC-3, MTT assay): 0.72 µM
IC50 [7]: 46 nM
Structure (SMILES): COC(=O)c1ccc(C(=O)N2CCC(Nc3nc(N[C@H]4CC[C@H](N)CC4)nc4c3ncn4C3CCCC3)CC2)cc1 [compound 11, trans-4-(1-{4-[2-(4-Amino-cyclohexylamino)-9-cyclopentyl-9H-purin-6-ylamino]-piperidin-1-yl}-methanoyl)-benzoic acid methyl ester dihydrochloride]
